Test system: CD20-TCB-induced cytokine release
Assay: CD20-TCB-induced cytokine release in non-tumor bearing humanized NSG mice (serum, Luminex)
Format: in vivo
Details: serum 4 hours and 24 hours after CD20-TCB; ruxolitinib 30 to 60 mg/kg
Procedure: FIG. 95. In vivo experiment timelines and dosing schedule.
Different doses of mTOR, JAK and Src kinase inhibitors were tested to determine the optimal dose that reduces CD20-TCB-induced cytokine release while minimally interfering with B cell depletion. […] The doses of 30 and 60 mg/kg were tested for ruxolitinib and the doses of 10 and 50 mg/kg were tested for dasatinib. To reproduce the clinical route of administration, the different kinase inhibitors were given orally (p.o.) once or twice per day as depicted in FIG. 95. Mice were bled 4 hours and 24 hours after the treatment with CD20-TCB (FIG. 95) to collect serum for cytokine level measurements by Luminex. Additionally, blood was collected 48 hours and 72 hours (termination) post treatment with CD20-TCB to measure the percentage of CD19+ B cells among human CD45+ cells by flow cytometry (FIG. 95).

## N#CC[C@H](C1CCCC1)n1cc(-c2ncnc3[nH]ccc23)cn1 [ruxolitinib, Ruxolitinib]
  CD20-TCB-mediated cytokine release other than IL-2 and GM-CSF: durably reduced

Reference: US12629419B2, “Prevention or mitigation of T-cell engaging agent-related adverse effects” (Hoffmann-La Roche Inc., priority 2020, dated 2026)
